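Values below derive from 48-hour exposures of cells grown in 96-well plates, with endpoints linearly interpolated between the two concentrations bracketing the appropriate inhibition level. Definition used: TGI = concentration required for complete inhibition of growth.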
Experiments:
Assay in all cases: growth of human tumour cells (NCI), 48 h
DLD-1 colon = test system: DLD-1 colon
DMS 273 small cell lung = test system: DMS 273 small cell lung
KM20L2 colon = test system: KM20L2 colon
OVCAR-3 ovarian = test system: OVCAR-3 ovarian
RPMI-8226 leukemia = test system: RPMI-8226 leukemia
DMS 114 small cell lung = test system: DMS 114 small cell lung
HOP-18 NSCLC = test system: HOP-18 NSCLC
LXFL 529 NSCLC = test system: LXFL 529 NSCLC
M19-MEL melanoma = test system: M19-MEL melanoma
SNB-78 CNS = test system: SNB-78 CNS
XF 498 CNS = test system: XF 498 CNS
RXF-631 renal = test system: RXF-631 renal

Row | Compound | TGI (OVCAR-3 ovarian) [µM] | TGI (RPMI-8226 leukemia) [µM] | other results
1 | CC1CCc2c(sc3ncnc(N/N=C/c4ccc(Cl)cc4)c23)C1 (configuration not stated) | > 100 | > 100 | TGI (DLD-1 colon): > 100 µM; TGI (DMS 273 small cell lung): > 100 µM; TGI (KM20L2 colon): 62.7 µM
2 | Cc1cccc(N=N/C(=N\NC(=O)c2cc(Cl)ccc2O)c2ccc(N(CCC#N)CCC#N)cc2C)c1 | 49.6 | 44.9 | –
3 | C[C@@H]1CC[C@@]2(C)[C@H](C)/C(=C\COC(=O)/C=C/c3ccc(O)c(O)c3)CC[C@@]12C | 21.6 | 10.2 | –
4 | Cc1cc(=O)oc2c(C)c3oc(CBr)cc3cc12 | > 100 | 42.6 | –
5 | C=CCOCn1cnc2c(=O)[nH]c(N)nc21 | – | > 100 | –
6 | Cn1c(=S)[nH]c(N)c(Cc2ccccc2)c1=O | > 100 | > 100 | –
7 | CC(C)[Si](Oc1ccc(CC2N(C(=O)c3ccc([N+](=O)[O-])cc3)C(CCc3ccccc3)CC2(C)C=O)cc1)(C(C)C)C(C)C (configuration not stated) | > 100 | > 100 | –
8 | COc1cc(OC)c(/C=N\Nc2nc3ccccc3c(=O)n2-c2ccccc2)c(OC)c1 | 50.9 | > 100 | –
9 | CC(C)C(CCOS(=O)(=O)O)CCC(C)[C@H]1[C@@H](O)C(O)C2[C@]3(O)C[C@@H](O)C4(O)C[C@@H](O)CC[C@]4(C)C3CC[C@@]21C (some centres not stated) | > 100 | > 100 | TGI (DLD-1 colon): > 100 µM; TGI (DMS 114 small cell lung): > 100 µM; TGI (DMS 273 small cell lung): > 100 µM; TGI (HOP-18 NSCLC): > 100 µM; TGI (KM20L2 colon): > 100 µM; TGI (LXFL 529 NSCLC): > 100 µM; TGI (M19-MEL melanoma): > 100 µM; TGI (SNB-78 CNS): > 100 µM; TGI (XF 498 CNS): > 100 µM
10 | COc1ccc(/C=C/C(=O)CCN2CCN(CCC(=O)/C=C/c3ccc(OC)cc3)CC2)cc1 | 28.8 | – | –
11 | O=C(NC(OCc1ccccc1)(C(F)(F)F)C(F)(F)F)OCc1ccccc1 | 28.6 | 41.1 | –
12 | C[C@]12CCc3nn(-c4ccccc4)nc3C1CC[C@@H]1C2CC[C@]2(C)C(=O)CCC12 (some centres not stated) | > 100 | > 100 | TGI (DLD-1 colon): > 100 µM; TGI (DMS 114 small cell lung): > 100 µM; TGI (DMS 273 small cell lung): > 100 µM; TGI (HOP-18 NSCLC): > 100 µM; TGI (KM20L2 colon): > 100 µM; TGI (LXFL 529 NSCLC): > 100 µM; TGI (M19-MEL melanoma): > 100 µM; TGI (SNB-78 CNS): > 100 µM
13 | CN(/N=C/C=N/N(C)C1=NCCN1)C1=NCCN1 | > 100 | – | –
14 | O=C1c2ccccc2C(=O)N1NC1=NCCN1 | > 100 | > 100 | –
15 | O=c1c2cc([N+](=O)[O-])ccc2n2n1CCCCC2 | > 100 | > 100 | –
16 | c1ccc2c(c1)-c1ccccc1C2NC1=NCCO1 | 67.8 | 91.9 | –
17 | CCN(/N=C1\CC2C=CCN(C2)C(=O)Cc2c1[nH]c1ccccc21)S(=O)(=O)c1ccc(C)cc1 (configuration not stated) | – | > 100 | TGI (DLD-1 colon): > 100 µM; TGI (DMS 114 small cell lung): > 100 µM; TGI (DMS 273 small cell lung): > 100 µM; TGI (KM20L2 colon): > 100 µM; TGI (M19-MEL melanoma): > 100 µM; TGI (RXF-631 renal): > 100 µM; TGI (XF 498 CNS): > 100 µM

Row | Compound | TGI (OVCAR-3 ovarian) [µM] | TGI (RPMI-8226 leukemia) [µM] | other results
18 | CC1CC(=O)Nc2ccccc2N1C(=O)C1CC1 (configuration not stated) | > 100 | > 100 | –
19 | COc1ccc(Nc2cc(=O)[nH]c(=O)[nH]2)cc1 | > 100 | > 100 | –
20 | C=C(C)[C@H]1CC(=O)[C@@]2(C)C[C@H]3O[C@]3(C)CC/C=C(\C)CC[C@H]12 | 80.1 | 91.9 | –
21 | O=C(Nc1ccc(F)cc1)c1cc2c(cc1Cl)Sc1nccn1S2(=O)=O | > 100 | – | –
22 | O=C(CC(=O)N1N=C(N(c2ccccc2)c2ccccc2)CC1c1ccccc1)Nc1cccc(Cl)c1 (configuration not stated) | > 100 | > 100 | –
23 | COc1ccc2nc3cc(Cl)ccc3c(NCCCCCC(=O)NC(COc3ccc4ccc5cccnc5c4n3)COc3ccc4ccc5cccnc5c4n3)c2c1 | > 100 | 17.3 | –
24 | C=C1CN2CCc3c([nH]c4ccccc34)C2CC1CC(=O)N(C)C (configuration not stated) | > 309 | > 309 | TGI (DLD-1 colon): > 309 µM; TGI (DMS 114 small cell lung): > 309 µM; TGI (DMS 273 small cell lung): > 309 µM; TGI (HOP-18 NSCLC): > 309 µM; TGI (KM20L2 colon): > 309 µM; TGI (LXFL 529 NSCLC): > 309 µM; TGI (M19-MEL melanoma): > 309 µM; TGI (XF 498 CNS): > 309 µM
25 | CC(N)C(C)c1ccccc1 (configuration not stated) | > 100 | > 100 | TGI (DLD-1 colon): > 100 µM; TGI (DMS 114 small cell lung): > 100 µM; TGI (DMS 273 small cell lung): > 100 µM; TGI (HOP-18 NSCLC): > 100 µM; TGI (KM20L2 colon): > 100 µM; TGI (LXFL 529 NSCLC): > 100 µM; TGI (SNB-78 CNS): > 100 µM; TGI (XF 498 CNS): > 100 µM
26 | COC(=O)C1Cc2cc3c(cc2C1)CCC3 | > 100 | > 100 | –
27 | Cn1c(=O)n(C2(C)CSC2)c2ccccc21 | – | > 100 | TGI (DLD-1 colon): > 100 µM; TGI (DMS 114 small cell lung): > 100 µM; TGI (DMS 273 small cell lung): > 100 µM; TGI (KM20L2 colon): > 100 µM; TGI (LXFL 529 NSCLC): > 100 µM; TGI (M19-MEL melanoma): > 100 µM; TGI (XF 498 CNS): > 100 µM
28 | c1ccc(/C(=N/Nc2ccccn2)c2cccnn2)cc1 | > 100 | 17 | –
29 | COc1ccc(-c2cc(=O)c3cc(O)ccc3o2)c(OC)c1OC | 46.3 | 32.8 | TGI (DLD-1 colon): > 100 µM; TGI (DMS 114 small cell lung): > 100 µM; TGI (KM20L2 colon): 58.1 µM; TGI (LXFL 529 NSCLC): > 100 µM; TGI (M19-MEL melanoma): > 100 µM; TGI (RXF-631 renal): > 100 µM; TGI (XF 498 CNS): > 100 µM
30 | CC(C)=CCc1cc(/C=C/C(=O)O)cc(CC=C(C)C)c1O | > 100 | > 100 | –
31 | O=C1CN(c2ccccc2)C(=O)CN1NCNN1CC(=O)N(c2ccccc2)CC1=O | > 100 | > 100 | –
32 | CC1(C)N([O-])[N+](=O)C1(C)O (configuration not stated) | > 100 | > 100 | –
33 | O[C@@]12Cc3c([nH]c4ccccc34)[C@@H]3Oc4c(-c5ccccc5)ccc5c4[C@@]31CCN(CC1CC1)[C@@H]2C5 | 3.04 | > 100 | –
